Test results as given in PubChem BioAssay AID1845213 (Molecular Pharmacology Branch, DTP, NCI, 2023).

System: NCI-H841 complex tumor spheroid viability
Assay: Anticancer human tumor NCI-H841 cell line growth inhibition;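 note: spheroids exposed to compounds for 7 days before readout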;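 for viability, T/C: 100% = DMSO vehicle control wells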
Conditions: for IC50: curve of first compound; for viability, T/C: stronger effect = lower value
In short: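 Complex tumor spheroids combined malignant cells with endothelial cells and mesenchymal stem cells. DNA-damaging drugs and DNA repair inhibitors were tested alone and in combination, at half-log dilutions down from clinical Cmax (top 10 microM if Cmax unknown), 0.25% DMSO final.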

[1] = second compound 30 pM, first compound 0.0316 µM
[2] = second compound 30 pM, first compound 0.1 µM
[3] = second compound 30 pM, first compound 0.316 µM
[4] = second compound 30 pM, first compound 1 µM
[5] = second compound 30 pM, first compound 3.16 µM
[6] = second compound 30 pM, first compound 10 µM
[7] = second compound 94.9 pM, first compound 0.0316 µM
[8] = second compound 94.9 pM, first compound 0.1 µM
[9] = second compound 94.9 pM, first compound 0.316 µM
[10] = second compound 94.9 pM, first compound 1 µM
[11] = second compound 94.9 pM, first compound 3.16 µM
[12] = second compound 94.9 pM, first compound 10 µM
[13] = second compound 0.0003 µM, first compound 0.0316 µM
[14] = second compound 0.0003 µM, first compound 0.1 µM
[15] = second compound 0.0003 µM, first compound 0.316 µM
[16] = second compound 0.0003 µM, first compound 1 µM
[17] = second compound 0.0003 µM, first compound 3.16 µM
[18] = second compound 0.0003 µM, first compound 10 µM
[19] = second compound 0.000949 µM, first compound 0.0316 µM
[20] = second compound 0.000949 µM, first compound 0.1 µM
[21] = second compound 0.000949 µM, first compound 0.316 µM
[22] = second compound 0.000949 µM, first compound 1 µM
[23] = second compound 0.000949 µM, first compound 3.16 µM
[24] = second compound 0.000949 µM, first compound 10 µM
[25] = second compound 0.003 µM, first compound 0.0316 µM
[26] = second compound 0.003 µM, first compound 0.1 µM
[27] = second compound 0.003 µM, first compound 0.316 µM
[28] = second compound 0.003 µM, first compound 1 µM
[29] = second compound 0.003 µM, first compound 3.16 µM
[30] = second compound 0.003 µM, first compound 10 µM

Cc1cc(C)c(CNC(=O)c2cc(-c3ccc(CN4CCOCC4)cc3)cc3c2cnn3C2CCCC2)c(=O)[nH]1 + COc1cc2c(cc1O)CCNC21CSC2c3c(OC(C)=O)c(C)c4c(c3C(COC1=O)N1C(O)C3Cc5cc(C)c(OC)c(O)c5C(C21)N3C)OCO4
IC50 (second compound 30 pM): > 10000 nM
IC50 (second compound 94.9 pM): > 10000 nM
IC50 (second compound 0.0003 µM): < 31.6 nM
IC50 (second compound 0.000949 µM): < 31.6 nM
IC50 (second compound 0.003 µM): < 31.6 nM
viability, T/C [1]: 99.7%
viability, T/C [2]: 102%
viability, T/C [3]: 104%
viability, T/C [4]: 95.4%
viability, T/C [5]: 87%
viability, T/C [6]: 65%
viability, T/C [7]: 99.5%
viability, T/C [8]: 99.7%
viability, T/C [9]: 97%
viability, T/C [10]: 89.5%
viability, T/C [11]: 84.7%
viability, T/C [12]: 57%
viability, T/C [13]: 38.6%
viability, T/C [14]: 44%
viability, T/C [15]: 46.7%
viability, T/C [16]: 32.2%
viability, T/C [17]: 25.2%
viability, T/C [18]: 7.36%
viability, T/C [19]: 2.45%
viability, T/C [20]: 2.86%
viability, T/C [21]: 3.65%
viability, T/C [22]: 2.33%
viability, T/C [23]: 2.54%
viability, T/C [24]: 1.15%
viability, T/C [25]: 0.26%
viability, T/C [26]: 0.12%
viability, T/C [27]: 0.11%
viability, T/C [28]: 0.11%
viability, T/C [29]: 0.13%
viability, T/C [30]: 0.19%

Cc1sc2c(c1C)C(c1ccc(Cl)cc1)=NC(CC(=O)Nc1ccc(O)cc1)c1nnc(C)n1-2 (stereo not given) + COc1cc2c(cc1O)CCNC21CSC2c3c(OC(C)=O)c(C)c4c(c3C(COC1=O)N1C(O)C3Cc5cc(C)c(OC)c(O)c5C(C21)N3C)OCO4
IC50 (second compound 30 pM): 515 nM
IC50 (second compound 94.9 pM): 291 nM
IC50 (second compound 0.0003 µM): < 9.49 nM
IC50 (second compound 0.000949 µM): < 9.49 nM
IC50 (second compound 0.003 µM): < 9.49 nM
viability, T/C (second compound 30 pM, first compound 0.00949 µM): 101%
viability, T/C (second compound 30 pM, first compound 0.03 µM): 99.2%
viability, T/C (second compound 30 pM, first compound 0.0949 µM): 93.3%
viability, T/C (second compound 30 pM, first compound 0.3 µM): 69.2%
viability, T/C (second compound 30 pM, first compound 0.949 µM): 28.3%
viability, T/C (second compound 30 pM, first compound 3 µM): 5.97%
viability, T/C (second compound 94.9 pM, first compound 0.00949 µM): 99.5%
viability, T/C (second compound 94.9 pM, first compound 0.03 µM): 91.6%
viability, T/C (second compound 94.9 pM, first compound 0.0949 µM): 74.9%
viability, T/C (second compound 94.9 pM, first compound 0.3 µM): 53.9%
viability, T/C (second compound 94.9 pM, first compound 0.949 µM): 14.4%
viability, T/C (second compound 94.9 pM, first compound 3 µM): 2.65%
viability, T/C (second compound 0.0003 µM, first compound 0.00949 µM): 37.6%
viability, T/C (second compound 0.0003 µM, first compound 0.03 µM): 20.6%
viability, T/C (second compound 0.0003 µM, first compound 0.0949 µM): 15.6%
viability, T/C (second compound 0.0003 µM, first compound 0.3 µM): 5.26%
viability, T/C (second compound 0.0003 µM, first compound 0.949 µM): 2.59%
viability, T/C (second compound 0.0003 µM, first compound 3 µM): 1.68%
viability, T/C (second compound 0.000949 µM, first compound 0.00949 µM): 2.84%
viability, T/C (second compound 0.000949 µM, first compound 0.03 µM): 2.9%
viability, T/C (second compound 0.000949 µM, first compound 0.0949 µM): 2.06%
viability, T/C (second compound 0.000949 µM, first compound 0.3 µM): 0.99%
viability, T/C (second compound 0.000949 µM, first compound 0.949 µM): 0.03%
viability, T/C (second compound 0.000949 µM, first compound 3 µM): 0.1%
viability, T/C (second compound 0.003 µM, first compound 0.00949 µM): 0.12%
viability, T/C (second compound 0.003 µM, first compound 0.03 µM): 0.12%
viability, T/C (second compound 0.003 µM, first compound 0.0949 µM): 0.12%
viability, T/C (second compound 0.003 µM, first compound 0.3 µM): 0.1%
viability, T/C (second compound 0.003 µM, first compound 0.949 µM): 0.12%
viability, T/C (second compound 0.003 µM, first compound 3 µM): 0.2%

[2H]c1nc(C)nc([2H])c1-c1cc(NC[C@@H](C)c2cccc3c(C(=O)NC)ccnc23)ncn1 + COc1cc2c(cc1O)CCNC21CSC2c3c(OC(C)=O)c(C)c4c(c3C(COC1=O)N1C(O)C3Cc5cc(C)c(OC)c(O)c5C(C21)N3C)OCO4
IC50 (second compound 30 pM): > 10000 nM
IC50 (second compound 94.9 pM): > 10000 nM
IC50 (second compound 0.0003 µM): < 31.6 nM
IC50 (second compound 0.000949 µM): < 31.6 nM
IC50 (second compound 0.003 µM): < 31.6 nM
viability, T/C [1]: 98.7%
viability, T/C [2]: 101%
viability, T/C [3]: 102%
viability, T/C [4]: 99.4%
viability, T/C [5]: 97.2%
viability, T/C [6]: 96.2%
viability, T/C [7]: 101%
viability, T/C [8]: 102%
viability, T/C [9]: 98%
viability, T/C [10]: 96.9%
viability, T/C [11]: 96.9%
viability, T/C [12]: 93%
viability, T/C [13]: 40%
viability, T/C [14]: 47.3%
viability, T/C [15]: 38.3%
viability, T/C [16]: 34.7%
viability, T/C [17]: 39.7%
viability, T/C [18]: 20.1%
viability, T/C [19]: 3.9%
viability, T/C [20]: 2.99%
viability, T/C [21]: 3.31%
viability, T/C [22]: 3.19%
viability, T/C [23]: 3.35%
viability, T/C [24]: 3.46%
viability, T/C [25]: 0.12%
viability, T/C [26]: 0.1%
viability, T/C [27]: 0.1%
viability, T/C [28]: 0.1%
viability, T/C [29]: 0.12%
viability, T/C [30]: 0.17%
